Data on 3 compounds can be found in patent publication US20090270440A1, “BIOAVAILABILITY OF ACTIVE SUBSTANCES HAVING AN AMIDINE FUNCTION IN MEDICAMENTS” (Drite Patentportfolio Beteilligungsgesellschaft mbH & Co. KG, priority 2006, published 2009).

For data set [1] the following is noted: literature value (Clement, Lopian 2003); cited from earlier work.
The nature of data set [2]: Oral bioavailability and metabolism study of N,N′-dihydroxybenzamidine in pigs (plasma levels by HPLC). The data set is classed as in vivo. As for the experimental part: Metabolism of N,N′-dihydroxybenzamidine to benzamidine in vivo proceeds in the following way:
In order to be able to ascertain the exact dosage of the substances, the animals were weighed once a week. The daily weight gain was calculated from the data. The substances to be administered orally were mixed into the moistened, ground feed concentrate. The substances given intravenously were dissolved in 0.9% NaCl solution in order to avoid hemolysis.
Directly before injection into the indwelling vein catheter, the solution was filtered in order to avoid induction of thrombus formation by any undissolved portions. The injection was followed by flushing with at least 10 ml of 0.9% NaCl solution again. The substance was administered in the morning on each occasion. A washout period took place the next day on each occasion in order to ensure complete excretion of the medicinal substance.
The orally administered doses of N,N′-dihydroxy-benzamidine were in each case 10 mg/kg of body weight (BW). The concentration of the substances administered intravenously as bolus was 2 mg/kg BW. Benzamidine and N,N′-dihydroxybenzamidine were likewise administered intravenously. The samples were taken at previously fixed times. The experimental period for one condition lasted one day. The blood samples were obtained over a period of 24 hours after administration of the substance. After oral administration, the samples were taken after 0, 30, 60, 90, 120, 150, 180, 240, 360, 480, 720 and 1440 minutes. After intravenous administration, an additional sample was taken after 5 and 15 minutes. The whole blood obtained was transferred into heparin tubes and centrifuged (4° C., 10 min, 1500 g). After centrifugation, about 4 ml of plasma were removed as supernatant, pipetted into Eppendorf vessels and frozen at −80° C. The plasma samples were slowly thawed and then centrifuged at 7000 rpm for 3 minutes, worked up by solid-phase extraction and passed on for HPLC.

Take `N=C(N)c1ccc(CNC(=O)[C@@H]2CCN2C(=O)[C@H](NCC(=O)O)C2CCCCC2)cc1` [melagatran]: the Oral bioavailability in data set [1] is on record as 7%.

Take `CCOC(=O)CN[C@@H](C(=O)N1CC[C@H]1C(=O)NCc1ccc(/C(N)=N\O)cc1)C1CCCCC1` [ximelagatran]: the Oral bioavailability in data set [1] is on record as 14%.

Regarding `O/N=C(/NO)c1ccccc1` [N,N′-dihydroxybenzamidine], the “Reduction of prodrug to the active form (amidine) in the blood” value in data set [2] (after oral administration) is listed as “rapidly reduced to the active form”. In addition, in data set [2] (i.v. 2 mg/kg BW), the “Metabolite benzamide oxime in plasma after injection” value was “benzamide oxime also being detectable” and the “Reduction of prodrug to the amidine after injection” value is “rapidly reduced to the amidine”. In addition, the “Absorption after oral administration” value in data set [2] (oral 10 mg/kg BW) is listed as “almost completely absorbed”.
